The subject of this test is P388 leukemia ip, CD2F1 mice, survival T/C. As to the kind of experiment: NCI In Vivo Anticancer Drug Screen. Data for tumor model P388 Leukemia (intraperitoneal) in CD2F1 (CDF1) mice. The settings on record: endpoint: median survival time, higher = longer survival. The method, boiled down:
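Mice carrying the transplanted tumor received test compound or vehicle. Survival was recorded in each group, and the value is the treated-group measurement divided by that of the vehicle-treated control group.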

Setting [1] is: dose: 12.5 mg/kg/injection, schedule: Q01DX009 (ip), vehicle: saline with Tween-80.
The mark [2] stands for this setting: dose: 25.0 mg/kg/injection, schedule: Q01DX009 (ip), vehicle: saline with Tween-80.
[3] abbreviates: dose: 50.0 mg/kg/injection, schedule: Q01DX009 (ip), vehicle: saline with Tween-80.
The mark [4] stands for this setting: dose: 100.0 mg/kg/injection, schedule: Q01DX009 (ip), vehicle: saline with Tween-80.
The mark [5] stands for this setting: dose: 25.0 mg/kg/injection, schedule: Q01DX009 (ip), vehicle: distilled water + Tween-80.
Where [6] appears, read: dose: 50.0 mg/kg/injection, schedule: Q01DX009 (ip), vehicle: distilled water + Tween-80.
Setting [7] is: dose: 200.0 mg/kg/injection, schedule: Q01DX009 (ip), vehicle: saline with Tween-80.
Setting [8] is: dose: 60.0 mg/kg/injection, schedule: Q01DX005 (ip), vehicle: saline with Tween-80.
The mark [9] stands for this setting: dose: 120.0 mg/kg/injection, schedule: Q01DX005 (ip), vehicle: saline with Tween-80.
Setting [10] is: dose: 240.0 mg/kg/injection, schedule: Q01DX005 (ip), vehicle: saline with Tween-80.
Where [11] appears, read: dose: 100.0 mg/kg/injection, schedule: Q01DX001 (ip), vehicle: saline with Tween-80.
Where [12] appears, read: dose: 100.0 mg/kg/injection, schedule: Q01DX005 (ip), vehicle: saline with Tween-80.
The mark [13] stands for this setting: dose: 200.0 mg/kg/injection, schedule: Q01DX001 (ip), vehicle: saline with Tween-80.
Where [14] appears, read: dose: 50.0 mg/kg/injection, schedule: Q01DX009 (ip), vehicle: Klucel (hydroxypropylcellulose) (HPC).
The mark [15] stands for this setting: dose: 100.0 mg/kg/injection, schedule: Q01DX009 (ip), vehicle: Klucel (hydroxypropylcellulose) (HPC).
Setting [16] is: dose: 200.0 mg/kg/injection, schedule: Q01DX009 (ip), vehicle: Klucel (hydroxypropylcellulose) (HPC).

Values joined by “and” are separate entries in the source; they are usually repeats but may differ in a detail not shown here. Equal entries are not always repeated. Inconclusive results and toxic doses are left out.

`Cc1ccc(N2C(=O)CC3(CCCCC3)C2=O)cc1[N+](=O)[O-]`: the T/C was 93 % of control (dose: 100.0 mg/kg/injection, schedule: Q04DX003 (ip), vehicle: Klucel (hydroxypropylcellulose) (HPC)); 97 % of control (dose: 200.0 mg/kg/injection, schedule: Q04DX003 (ip), vehicle: Klucel (hydroxypropylcellulose) (HPC)); 99 % of control (dose: 400.0 mg/kg/injection, schedule: Q04DX003 (ip), vehicle: Klucel (hydroxypropylcellulose) (HPC)).
In the case of `Cn1c(=O)c2nc(-c3ccccc3)c(-c3ccccc3)nc2n(C)c1=O`, the T/C runs as follows: under setting [1], 96 % of control; under setting [2], 96 % of control; under setting [3], 107 % of control; under setting [4], 107 % of control.
For `CCCCN(CCNc1cc(OC)cc2cccnc12)C1CCCC1`, the T/C (dose: 50.0 mg/kg/injection, schedule: Q01DX005 (ip), vehicle: saline) is 104 % of control and the T/C (dose: 100.0 mg/kg/injection, schedule: Q01DX005 (ip), vehicle: saline) is 88 % of control.
Take `OC(COc1cccc(C(F)(F)F)c1)CN1CCN(c2ccc(F)cc2)CC1` (stereo unspecified): the T/C by setting is: under setting [1], 100 % of control; under setting [5], 106 % of control; under setting [2], 106 % of control; under setting [6], 108 % of control; under setting [3], 124 % of control.
Turning to `O=C(O)C(Nc1ccccn1)(c1ccccc1)c1ccccc1`, the T/C (dose: 60.0 mg/kg/injection, schedule: Q01DX005 (ip), vehicle: Klucel (hydroxypropylcellulose) (HPC)) is 102 % of control; the T/C (dose: 120.0 mg/kg/injection, schedule: Q01DX005 (ip), vehicle: Klucel (hydroxypropylcellulose) (HPC)) is 102 % of control; the T/C (dose: 240.0 mg/kg/injection, schedule: Q01DX005 (ip), vehicle: Klucel (hydroxypropylcellulose) (HPC)) is 98 % of control.
In the case of `COc1cccc2c1C(=O)c1c(O)c3c(c(O)c1C2=O)C[C@@](O)(C(=O)CO)C[C@@H]3OC1CC(NC(C)=O)C(O)C(C)O1` (stereo partly specified), the T/C (dose: 0.2 mg/kg/injection, schedule: Q01DX009 (ip), vehicle: water) is 96 % of control; the T/C (dose: 0.39 mg/kg/injection, schedule: Q01DX009 (ip), vehicle: water) is 107 % of control; the T/C (dose: 0.78 mg/kg/injection, schedule: Q01DX009 (ip), vehicle: water) was 116 % of control; the T/C (dose: 1.56 mg/kg/injection, schedule: Q01DX009 (ip), vehicle: water) is 122 % of control; the T/C (dose: 3.13 mg/kg/injection, schedule: Q01DX009 (ip), vehicle: water) is 120 % of control; the T/C (dose: 25.0 mg/kg/injection, schedule: Q01DX009 (ip), vehicle: other) is 156 % of control. Also, the T/C (dose: 50.0 mg/kg/injection, schedule: Q01DX009 (ip), vehicle: other) is 195 % of control; the T/C (dose: 50.0 mg/kg/injection, schedule: Q01DX009 (ip), vehicle: water) was 172 % of control; the T/C (dose: 100.0 mg/kg/injection, schedule: Q01DX009 (ip), vehicle: other) is 201 % of control; the T/C (dose: 200.0 mg/kg/injection, schedule: Q01DX009 (ip), vehicle: other) is 192 % of control.
As to `COc1cccc2c1C(=O)c1c(O)c3c(c(O)c1C2=O)C[C@@](O)(C(=O)CO)C[C@@H]3OC1CC(OC(C)=O)C(OC(C)=O)C(C)O1` (stereo partly specified), the T/C was 99 % of control and 123 % of control (dose: 3.13 mg/kg/injection, schedule: Q04DX003 (ip), vehicle: distilled water + Tween-80); 123 % of control (dose: 6.25 mg/kg/injection, schedule: Q04DX003 (ip), vehicle: distilled water + Tween-80); 163 % of control (dose: 12.5 mg/kg/injection, schedule: Q04DX003 (ip), vehicle: distilled water + Tween-80); 185 % of control and 192 % of control (dose: 25.0 mg/kg/injection, schedule: Q04DX003 (ip), vehicle: distilled water + Tween-80); 211 % of control and 269 % of control (dose: 50.0 mg/kg/injection, schedule: Q04DX003 (ip), vehicle: distilled water + Tween-80).
Consider `CC(C)(C)N=NNc1ccc([N+](=O)[O-])cc1`, for which the T/C is 106 % of control (dose: 12.5 mg/kg/injection, schedule: Q01DX009 (ip), vehicle: distilled water + Tween-80); 100 % of control under setting [5]; 93 % of control under setting [6]; 86 % of control (dose: 100.0 mg/kg/injection, schedule: Q01DX009 (ip), vehicle: distilled water + Tween-80); 96 % of control (dose: 200.0 mg/kg/injection, schedule: Q01DX009 (ip), vehicle: distilled water + Tween-80).
For the molecule `O=C(Nc1ccc(Cl)cc1)OCCSc1nc2ccccc2s1`, the T/C was 102 % of control under setting [3], 105 % of control under setting [4] and 93 % of control under setting [7].
For `CNC/C(Cl)=N/S(=O)(=O)c1ccc(C)cc1`, the T/C is 99 % of control under setting [8], 99 % of control under setting [9] and 105 % of control under setting [10].
Consider `CS(=O)(=O)OCCCl`, for which the T/C under setting [2] was 105 % of control and 108 % of control; the T/C under setting [3] was 107 % of control and 112 % of control; the T/C (dose: 75.0 mg/kg/injection, schedule: Q01DX005 (ip), vehicle: saline with Tween-80) was 113 % of control and 86 % of control; the T/C (dose: 75.0 mg/kg/injection, schedule: Q01DX009 (ip), vehicle: saline with Tween-80) is 102 % of control; the T/C under setting [11] is 100 % of control; the T/C under setting [12] is 114 % of control and 94 % of control. For the same molecule, the T/C reads like this: under setting [4], 111 % of control; under setting [13], 110 % of control.
For the molecule `COC1=C/C(=C\N(O)C(C)(C)CO)C=CC1=O`, the T/C is, setting by setting: under setting [3], 99 % of control; under setting [4], 91 % of control; under setting [7], 91 % of control.
On to `Cc1cc(=O)n2c(n1)sc1ccc3ccccc3c12`, for which the T/C is 100 % of control under setting [8], 100 % of control under setting [9] and 97 % of control under setting [10].
As to `COc1ccc2c3c1O[C@H](c1ccc(O)cc1)[C@H]3[N+](C)(C)CC2`, the T/C was 107 % of control (dose: 6.25 mg/kg/injection, schedule: Q01DX005 (ip), vehicle: Klucel (hydroxypropylcellulose) (HPC)); 110 % of control (dose: 12.5 mg/kg/injection, schedule: Q01DX005 (ip), vehicle: Klucel (hydroxypropylcellulose) (HPC)); 110 % of control (dose: 25.0 mg/kg/injection, schedule: Q01DX005 (ip), vehicle: Klucel (hydroxypropylcellulose) (HPC)); 103 % of control (dose: 50.0 mg/kg/injection, schedule: Q01DX005 (ip), vehicle: Klucel (hydroxypropylcellulose) (HPC)).
Take `COc1ccc(C2=[N+]([O-])C(C)(C)C(c3ccccc3)C2)cc1` (stereo unspecified): the T/C reads like this: under setting [14], 97 % of control; under setting [15], 101 % of control; under setting [16], 100 % of control.
In the case of `Cc1nc2ccc(O)cc2c(C(=O)O)c1C(=O)O`, the T/C runs as follows: (dose: 50.0 mg/kg/injection, schedule: Q01DX005 (ip), vehicle: saline with Tween-80) 100 % of control; under setting [12], 96 % of control; (dose: 200.0 mg/kg/injection, schedule: Q01DX005 (ip), vehicle: saline with Tween-80) 104 % of control.
For `COc1ccc(C2C3=C(CCC(CN(C)C)C3=O)OC3=C2C(=O)C(CN(C)C)CC3)cc1` (stereo unspecified), the T/C was 102 % of control (dose: 60.0 mg/kg/injection, schedule: Q01DX005 (ip), vehicle: saline) and 102 % of control (dose: 120.0 mg/kg/injection, schedule: Q01DX005 (ip), vehicle: saline).
With `O=C(O)c1ccc(OCCOc2ccccc2)cc1`, the T/C is 100 % of control (dose: 50.0 mg/kg/injection, schedule: Q01DX001 (ip), vehicle: saline with Tween-80); 100 % of control under setting [11]; 90 % of control under setting [13].
`COc1ccc(OC)c(NC(=O)Nc2ncccn2)c1`: the T/C under setting [14] is 106 % of control, the T/C under setting [15] was 100 % of control and the T/C under setting [16] is 103 % of control.
`CC12CC3(C)CC(C(Cl)C(=O)O)(C1)CC(C(Cl)C(=O)O)(C2)C3` (stereo unspecified): the T/C is, setting by setting: under setting [3], 103 % of control; under setting [4], 100 % of control; under setting [7], 107 % of control.
As for `Cc1ccc([SeH])cc1.[Sn]`, the T/C under setting [2] is 92 % of control, the T/C under setting [3] was 94 % of control and the T/C under setting [4] was 86 % of control.

For the origin of these results see PubChem BioAssay AID330 (DTP/NCI, 2004).
